Reference: US8242251B2, “Unsymmetrical cyanine dimer compounds and their application” (Life Technologies Corporation, priority 2003, dated 2012)
Values belong to the molecule of their own block, whether it stands above or below them.

Experiments:
RNA versus DNA = assay: Screening of fluorescence properties and relative fluorescence enhancement with RNA versus DNA (Table 3); assay type: binding; settings: for Fluorescence Enhancement Ratio (RNA/DNA): fluorescence enhancement when associated with RNA to that when associated with DNA
[1] = test system: Bovine pulmonary arterial endothelial cells; assay: Cell permeability and nucleic acid label pattern with a concentration series in live cells (Example 43); assay type: cell-based
Description: Bovine pulmonary arterial endothelial cells were grown in media for one day after plating on coverslips, then labeled with 50 nM MitoTracker Red CMXRos (Molecular Probes, Inc., M7512) in Hank's balanced salt solution (HBSS) with HEPES for general mitochondrial labeling. After washing in HBSS, cells were then labeled with Compound 1 at various concentrations ranging from 100 nM up to 10 μM in media for 20 minutes at 37°. Cells were washed well with HBSS. Coverslips were examined mounted in warm HBSS on a Nikon Eclipse 800 upright fluorescent microscope and imaged with a FITC filter set, a Princeton Instruments MicroMax cooled CCD camera, and Universal Imaging MetaMorph imaging software. […] The mtDNA signal was localized within mitochondria, as evidenced by MitoTracker Red labeling.

[2] = test system: Gram-positive (Staphylococcus aureus) and Gram-negative (Eshcerichia coli) bacteria; assay: Rifampicin-depletion of bacterial RNA, flow cytometry and microplate reader (Example 37); assay type: cell-based; settings: 25 μg/mL rifampicin one hour; compound 0.25, 0.5 or 1 μM, 10-15 minutes
Description: Gram-positive (Staphylococcus aureus) and Gram-negative (Eshcerichia coli) bacteria in growth medium were treated with 25 μg/mL rifampicin for one hour. Treated and untreated bacteria were counted, diluted to 1×10^7 bacteria/mL in 0.85% NaCl, and 1 mL aliquots incubated with 0.25 μM, 0.5 μM, or 1 μM Compound 6 or Compound 9 for 10-15 minutes protected from light. The samples were analyzed by flow cytometry and then 100 μL volumes were transferred to a microplate in triplicate and analyzed by a microplate reader. The fluorescence intensity was corrected against the dye in solution, which was weakly fluorescent.

[3] = test system: Bovine pulmonary arterial endothelial cells; assay: Nucleic acid binding on RNase and DNase treated formaldehyde-fixed eukaryotic cells (Example 39); assay type: cell-based; settings: Compound 6 687 nM, Compound 19 1 μM
Description: (§1) Bovine pulmonary arterial endothelial cells were grown in media for one day after plating and then fixed fifteen minutes in 4% paraformaldehyde. Cells were washed 3×5 minutes in PBT (0.05M phosphate-buffered saline (PBS) containing 0.1% Triton X-100) and then treated with RNase (from Roche, at 1:500 dilution) or DNase (from Promega, at 1:100 dilution), or both for 2 hours at 37° C. Cells were washed again for 3×5 minutes in PBT and then labeled with Compound 6 at 687 nM concentration or Compound 19 at 1 μM concentration in PBS for 20 minutes. Cells were washed 3×10 minutes in PBS and mounted on microscope slides in ProLong antifade mounting medium (Molecular Probes, Inc.). After the mountant had hardened, slides were examined on a Nikon Eclipse 800 upright fluorescent microscope and imaged with a FITC filter set, a Princeton Instrument MicroMax cooled CCD camera, and Universal Imaging MetaMorph imaging software. […] See, FIG. 5.

[4] = test system: Bovine pulmonary arterial endothelial cells; assay: Nucleic acid binding after RNase and DNase on methanol-fixed eukaryotic cells (Example 38); assay type: cell-based; settings: control to test the activity of the DNase; printed as treated with RNase
Description: as §1, with “ten” for “fifteen”, “100% methanol at −20° C.” for “4% paraformaldehyde.”, “dilution)” for “dilution), or both”, “concentration” for “concentration or Compound 19 at 1 μM concentration in PBS”, “medium.” for “medium (Molecular Probes, Inc.).”, “4.” for “5.”

concentration at which mitochondrial morphology was disrupted ([1]; as evidenced with MitoTracker Red): ≥ 3 μM
Compound: C[n+]1c(/C=C2\C=C(SCCCCCCCCCSC3=C/C(=C\c4sc5ccccc5[n+]4C)c4ccccc4N3c3ccccc3)N(c3ccccc3)c3ccccc32)sc2ccccc21 [Compound 1]
Fluorescence Enhancement Ratio (RNA/DNA) (RNA versus DNA): 1.0
staining pattern at 1 μM ([1]; 20 minutes at 37°): nuclear labeling was seen as well as mtDNA
staining pattern at 3 μM or higher ([1]; 20 minutes at 37°): mtDNA labeling was lost, replaced with ubiquitous cytoplasmic labeling and strong nuclear labeling
staining pattern at 100 nM to 500 nM ([1]; 20 minutes at 37°, MitoTracker Red co-label): mitochondrial DNA (mtDNA), with no nuclear label, or cytoplasmic background

Compound: C[n+]1c(/C=C2\C=C(Sc3nnc(SC4=C/C(=C\c5sc6ccccc6[n+]5C)c5ccccc5N4c4ccccc4)s3)N(c3ccccc3)c3ccccc32)sc2ccccc21.[Cl-].[Cl-] [Compound 7]
Fluorescence Enhancement Ratio (RNA/DNA) (RNA versus DNA): 2.3

Compound: CN1/C(=C\c2c/c(=N/C3CCC(/N=c4/cc(/C=C5/Sc6ccccc6N5C)c5ccccc5n4-c4ccccc4)CC3)n(-c3ccccc3)c3ccccc23)Sc2ccccc21 (stereo not drawn) [Compound 8]
Fluorescence Enhancement Ratio (RNA/DNA) (RNA versus DNA): 4.9

Compound: CN1/C(=C\c2c/c(=N/N3CCN(/N=c4/cc(/C=C5/Sc6ccccc6N5C)c5ccccc5n4-c4ccccc4)CC3)n(-c3ccccc3)c3ccccc23)Sc2ccccc21 [Compound 9]
Fluorescence Enhancement Ratio (RNA/DNA) (RNA versus DNA): 1.7
fluorescent signal of rifampicin treated versus untreated bacteria [2]: decrease in fluorescent signal after removal of mRNA

Compound: C[n+]1c(/C=C2\C=C(N(CCC[N+](C)(C)C)CCC[N+](C)(C)C)N(CCCCCCCCCCN3C(N(CCC[N+](C)(C)C)CCC[N+](C)(C)C)=C/C(=C\c4sc5ccccc5[n+]4C)c4ccccc43)c3ccccc32)sc2ccccc21.Cl.Cl [Compound 13]
Fluorescence Enhancement Ratio (RNA/DNA) (RNA versus DNA): 2.5

Compound: C[n+]1c(/C=C2\C=C(N3CCNCCN(C4=C/C(=C\c5sc6ccccc6[n+]5C)c5ccccc5N4c4ccccc4)CCNCC3)N(c3ccccc3)c3ccccc32)sc2ccccc21.[Cl-].[Cl-] [Compound 15]
Fluorescence Enhancement Ratio (DNA/RNA) (RNA versus DNA; fluorescence enhancement when associated with DNA to that when associated with RNA): 3.7

Compound: C[n+]1c(/C=C/C=C2/C=CN(c3ccccc3)C(N3CCN(C4=C/C(=C\C=C\c5sc6ccccc6[n+]5C)C=CN4c4ccccc4)CC3)=C2)sc2ccccc21 [Compound 18]
Fluorescence Enhancement Ratio (RNA/DNA) (RNA versus DNA): 1.3

Compound: COc1ccc2c(c1)N(c1ccccc1)C(N1CCN(C3=C/C(=C\c4sc5ccccc5[n+]4C)c4ccc(OC)cc4N3c3ccccc3)CC1)=C/C2=C\c1sc2ccccc2[n+]1C.[I-].[I-] [Compound 19]
Fluorescence Enhancement Ratio (RNA/DNA) (RNA versus DNA): 4.9
cytoplasmic label after DNase [3]: not reduced at all
cytoplasmic label after RNase [3]: not reduced at all
labeling of nucleoli after RNase [3]: eliminated
nuclear labeling after DNase [3]: not DNase
nuclear labeling after RNase [3]: significantly reduced with RNase
nucleolar intensity after DNase [3]: significantly reduced

Compound: CN1/C(=C\c2ccn(-c3ccccc3)/c(=N\N3CCN(/N=c4/cc(/C=C5/Sc6ccccc6N5C)c5ccccc5n4-c4ccccc4)CC3)c2)Sc2ccccc21 [Compound 25]
Fluorescence Enhancement Ratio (RNA/DNA) (RNA versus DNA): 5.6

Compound: N=C(N)c1ccc(-c2cc3ccc(C(=N)N)cc3[nH]2)cc1 [DAPI, reference compound]
label intensity of DNA label control after nuclease treatment [4]: significant decline in label intensity
